Assay results: US12240844B2 (Voronoi, Inc., priority 2019, dated 2025)

Key:
TTK = biological target: T1, TTK (Homo sapiens, UniProt P33981); test: TTK enzyme inhibition, ADP-Glo kinase assay; format: biochemical; set-up: purchased Signalchem T20-10G; details: ATP 5 μM
T1 sequence (P33981 1-857): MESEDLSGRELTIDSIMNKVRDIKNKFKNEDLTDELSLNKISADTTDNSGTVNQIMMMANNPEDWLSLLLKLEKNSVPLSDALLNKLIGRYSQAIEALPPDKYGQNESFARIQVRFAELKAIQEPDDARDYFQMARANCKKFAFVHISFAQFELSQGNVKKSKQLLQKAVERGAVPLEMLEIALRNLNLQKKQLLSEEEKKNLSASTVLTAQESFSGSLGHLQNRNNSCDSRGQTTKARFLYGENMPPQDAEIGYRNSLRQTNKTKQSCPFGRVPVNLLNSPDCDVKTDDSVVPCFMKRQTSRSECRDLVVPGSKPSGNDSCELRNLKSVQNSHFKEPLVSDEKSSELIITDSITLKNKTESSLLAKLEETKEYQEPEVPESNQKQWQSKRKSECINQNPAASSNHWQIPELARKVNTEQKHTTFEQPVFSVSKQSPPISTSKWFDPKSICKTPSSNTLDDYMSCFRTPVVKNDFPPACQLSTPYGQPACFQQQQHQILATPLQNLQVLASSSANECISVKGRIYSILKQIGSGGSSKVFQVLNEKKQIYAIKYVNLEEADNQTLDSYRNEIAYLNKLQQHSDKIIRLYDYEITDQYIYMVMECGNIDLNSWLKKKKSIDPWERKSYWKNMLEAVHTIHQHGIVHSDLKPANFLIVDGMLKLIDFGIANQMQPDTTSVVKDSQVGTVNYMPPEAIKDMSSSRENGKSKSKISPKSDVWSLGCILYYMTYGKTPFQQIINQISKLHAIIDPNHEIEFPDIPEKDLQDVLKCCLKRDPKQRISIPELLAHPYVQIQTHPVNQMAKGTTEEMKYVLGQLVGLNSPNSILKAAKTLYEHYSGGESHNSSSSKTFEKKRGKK
Method: In order to evaluate the inhibitory activity of the compounds according to the present invention on LRRK2, LRRK2 (G2019S), DYRK1, CLK1 and TTK kinases, the following experiment was performed.
Example compounds were reacted with the purified human TTK (Signalchem #T20-10G) enzyme to evaluate the enzyme inhibitory ability as follows. The reaction buffer was used as the composition of 40 mM Tris-HCl pH7.4, 20 mM MgCl2, 0.1 mg/ml BSA (5× kinase buffer, Signalchem #K03-09) and 50 μM DTT (Signalchem #D86-09B), and the reaction of all test materials was performed on the reaction buffer. The compound was diluted with 10 mM DMSO stock in […] by a serial dilution method, and the enzyme activity was measured at the final compound concentrations of 1, 0.333333, 0.111111, 0.037037, 0.012346, 0.004115, 0.001372, 0.000457, 0.000152, 0.000051 and 0.000017 μM. In the test, the human TTK (7.5 ng) enzyme was reacted with the purified ATP (5 μM, Promega #V6930) and an MBP enzyme substrate (0.2 μg, Signalchem M42-51N) at 25° C. for 4 hours, and then the enzyme activity was identified using the in vitro ADP-Glo™ kinase assay (Promega #V6930). The enzyme activity reaction liquid, an ADP-Glo reaction liquid and an enzyme potency detection solution were reacted in a ratio of 2:2:1, and the degree of inhibition of enzyme activity was measured by luminescence. The degree of inhibition of enzyme activity according to the treatment concentrations of the respective compounds was calculated based on the luminescence degree of the enzyme activity of a solvent control group that was not treated with the compound, where the concentration of each compound to inhibit enzyme activity inhibition by 50% was determined as an IC50 (nM) value and obtained using Prism (Version 8.2, GraphPad) software.
(§1) In the table below, the following designations were used for the evaluation of enzyme inhibitory ability.

MDA-MB-231 cell line = test: MDA-MB-231 cancer cell proliferation inhibition (Cell Titer-Glo); format: cell-based; details: Homo sapiens, MDA-MB-231 triple-negative breast cancer cell line, 72 hours
How it was run: (§2)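 GI50 comes from CellTiter-Glo luminescence, read 10 min after reagent addition at RT, following 72 h compound treatment. Eleven concentrations were used (⅓ steps, highest 10 μM final) on 2000 cells/well. MDA-MB-231 and MDA-MB-468 were grown in DMEM, SHP-77 in RPMI.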

SHP-77 = SHP-77 cancer cell proliferation inhibition (Cell Titer-Glo); format: cell-based; details: Homo sapiens, SHP77, SHP-77 small cell lung cancer cell line, 72 hours
How it was run: as §2

[1] = biological target: T2, LRRK2, LRRK2 (G2019S), DYRK1, CLK1 and TTK kinases (Homo sapiens, UniProt Q13627); test: Enzyme IC50 by Kinase HotSpot service (Reaction Biology Corporation), values marked with *; format: biochemical; details: DYRK1, ATP 10 uM
T2 construct: other: DYRK1; Kinase HotSpot service (Reaction Biology), ATP 10 uM
Method: (§3) Meanwhile, the enzyme IC50 measurement for some compounds was performed using Kinase HotSpot service (Reaction Biology Corporation); during the test, the ATP concentration was 10 uM, where all were conducted under the same condition; and the concentration of the compound was measured by giving a 3-fold concentration gradient with the highest concentration of […], where the values measured using Kinase HotSpot service (Reaction Biology Corporation) were marked with “*”.
(§4) All experimental methods were performed as provided in Kinase HotSpot Customer Protocol (http://www.reactionbiology.com//Kinase_Assay_Protocol).
as §1

[2] = biological target: T3, LRRK2, LRRK2 (G2019S), DYRK1, CLK1 and TTK kinases (Homo sapiens, UniProt P49759); test: as above; format: biochemical; details: CLK1, ATP 10 uM
T3 construct: CLK1 IC50 (marked with *); other: CLK1; Kinase HotSpot service (Reaction Biology), ATP 10 uM
T3 sequence (P49759 whole entry, stated change not applied): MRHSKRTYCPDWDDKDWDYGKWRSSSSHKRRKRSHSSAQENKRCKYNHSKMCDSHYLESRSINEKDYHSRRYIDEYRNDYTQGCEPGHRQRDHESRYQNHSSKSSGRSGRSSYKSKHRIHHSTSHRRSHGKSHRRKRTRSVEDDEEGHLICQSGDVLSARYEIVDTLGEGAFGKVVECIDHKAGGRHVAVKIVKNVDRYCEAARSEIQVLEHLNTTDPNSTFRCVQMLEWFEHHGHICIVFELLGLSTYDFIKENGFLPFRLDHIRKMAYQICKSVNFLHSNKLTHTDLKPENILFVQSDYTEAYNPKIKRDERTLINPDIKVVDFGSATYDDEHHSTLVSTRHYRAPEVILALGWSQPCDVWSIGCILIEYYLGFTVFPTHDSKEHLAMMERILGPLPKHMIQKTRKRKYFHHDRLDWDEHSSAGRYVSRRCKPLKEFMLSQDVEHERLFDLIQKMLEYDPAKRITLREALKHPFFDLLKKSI
Method: as §3, §4, §1

[3] = biological target: T4, LRRK2, LRRK2 (G2019S), DYRK1, CLK1 and TTK kinases (Homo sapiens, UniProt Q5S007, G2019S); test: as above; format: biochemical; details: LRRK2 (G2019S), ATP 10 uM
T4 construct: other: LRRK2 (G2019S); Kinase HotSpot service (Reaction Biology), ATP 10 uM
T4 sequence (Q5S007 whole entry G2019S): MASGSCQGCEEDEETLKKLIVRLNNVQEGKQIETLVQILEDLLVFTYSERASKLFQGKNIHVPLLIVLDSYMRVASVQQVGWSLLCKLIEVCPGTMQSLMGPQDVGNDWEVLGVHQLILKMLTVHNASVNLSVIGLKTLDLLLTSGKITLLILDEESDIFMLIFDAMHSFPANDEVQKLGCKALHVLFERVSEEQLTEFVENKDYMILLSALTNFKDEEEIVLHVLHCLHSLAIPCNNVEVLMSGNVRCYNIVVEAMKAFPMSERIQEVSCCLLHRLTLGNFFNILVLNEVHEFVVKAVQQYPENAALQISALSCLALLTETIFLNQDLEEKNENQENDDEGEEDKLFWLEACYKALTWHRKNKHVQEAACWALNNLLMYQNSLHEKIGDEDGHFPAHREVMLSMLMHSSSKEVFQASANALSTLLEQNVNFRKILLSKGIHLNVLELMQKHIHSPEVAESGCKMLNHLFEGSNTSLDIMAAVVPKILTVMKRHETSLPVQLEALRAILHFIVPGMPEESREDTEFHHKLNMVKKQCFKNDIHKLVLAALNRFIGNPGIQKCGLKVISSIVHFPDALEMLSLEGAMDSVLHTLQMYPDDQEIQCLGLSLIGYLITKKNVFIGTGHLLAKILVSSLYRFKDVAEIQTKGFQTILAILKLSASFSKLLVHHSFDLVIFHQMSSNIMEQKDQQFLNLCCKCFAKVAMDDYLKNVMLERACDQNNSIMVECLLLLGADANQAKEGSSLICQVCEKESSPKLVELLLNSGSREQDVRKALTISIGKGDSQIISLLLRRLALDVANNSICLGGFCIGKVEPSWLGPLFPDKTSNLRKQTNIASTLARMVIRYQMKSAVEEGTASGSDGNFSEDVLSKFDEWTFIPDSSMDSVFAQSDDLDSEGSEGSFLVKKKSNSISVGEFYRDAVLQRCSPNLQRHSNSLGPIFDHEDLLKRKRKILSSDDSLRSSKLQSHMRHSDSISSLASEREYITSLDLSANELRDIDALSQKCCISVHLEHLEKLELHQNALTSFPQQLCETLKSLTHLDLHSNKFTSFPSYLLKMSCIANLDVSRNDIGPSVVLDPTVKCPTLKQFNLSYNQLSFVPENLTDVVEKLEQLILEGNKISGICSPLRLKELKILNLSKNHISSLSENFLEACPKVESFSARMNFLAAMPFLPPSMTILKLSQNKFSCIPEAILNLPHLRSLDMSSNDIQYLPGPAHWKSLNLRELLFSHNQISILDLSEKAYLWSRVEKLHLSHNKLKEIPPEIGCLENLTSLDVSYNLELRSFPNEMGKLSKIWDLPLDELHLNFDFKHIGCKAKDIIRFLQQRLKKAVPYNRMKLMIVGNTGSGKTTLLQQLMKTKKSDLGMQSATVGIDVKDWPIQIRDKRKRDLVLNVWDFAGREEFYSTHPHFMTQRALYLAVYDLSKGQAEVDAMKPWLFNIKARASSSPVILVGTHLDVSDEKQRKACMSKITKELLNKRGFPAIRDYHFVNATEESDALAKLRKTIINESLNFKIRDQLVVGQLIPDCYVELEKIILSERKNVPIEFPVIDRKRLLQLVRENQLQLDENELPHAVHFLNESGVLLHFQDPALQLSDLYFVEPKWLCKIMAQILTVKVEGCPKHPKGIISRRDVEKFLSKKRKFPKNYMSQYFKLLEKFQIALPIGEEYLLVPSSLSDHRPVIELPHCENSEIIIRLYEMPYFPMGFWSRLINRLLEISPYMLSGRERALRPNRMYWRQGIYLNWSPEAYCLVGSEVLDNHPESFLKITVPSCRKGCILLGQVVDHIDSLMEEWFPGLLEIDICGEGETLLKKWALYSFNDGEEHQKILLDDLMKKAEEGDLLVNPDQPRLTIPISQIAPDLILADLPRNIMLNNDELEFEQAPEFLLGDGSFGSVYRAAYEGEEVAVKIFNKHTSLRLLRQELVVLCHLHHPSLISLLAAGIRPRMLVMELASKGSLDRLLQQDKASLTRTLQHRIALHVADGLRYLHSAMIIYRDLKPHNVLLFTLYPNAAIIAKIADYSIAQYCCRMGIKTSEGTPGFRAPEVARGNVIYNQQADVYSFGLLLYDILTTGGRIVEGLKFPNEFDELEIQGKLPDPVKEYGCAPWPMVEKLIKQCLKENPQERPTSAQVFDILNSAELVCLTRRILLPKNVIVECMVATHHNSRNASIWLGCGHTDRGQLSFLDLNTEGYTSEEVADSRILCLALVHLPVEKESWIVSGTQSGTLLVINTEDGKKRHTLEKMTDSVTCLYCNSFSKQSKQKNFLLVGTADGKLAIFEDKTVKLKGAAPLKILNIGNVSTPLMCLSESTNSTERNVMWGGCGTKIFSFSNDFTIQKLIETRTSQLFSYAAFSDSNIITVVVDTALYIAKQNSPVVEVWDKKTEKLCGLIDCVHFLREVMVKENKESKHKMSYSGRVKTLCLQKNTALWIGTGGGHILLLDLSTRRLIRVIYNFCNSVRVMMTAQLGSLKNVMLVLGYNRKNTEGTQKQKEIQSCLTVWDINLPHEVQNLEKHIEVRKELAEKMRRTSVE
Method: as §3, §4, §1

[4] = biological target: T5, LRRK2, LRRK2 (G2019S), DYRK1, CLK1 and TTK kinases (Homo sapiens, UniProt Q5S007); test: as above; format: biochemical; details: LRRK2, ATP 10 uM
T5 construct: LRRK2 IC50 (marked with *); other: LRRK2; Kinase HotSpot service (Reaction Biology), ATP 10 uM
T5 sequence (Q5S007 whole entry G2019S): as above
Method: as §3, §4, §1

human DYRK1A and Tau = test: Tau phosphorylation inhibition, ClariCELL Kinase Cell-Based Assay (Carnabio)
How it was run: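 HEK293 cells transiently expressing human DYRK1A and Tau were exposed to compound, then lysed. Released Tau was captured on plate and its phosphorylation quantified by ELISA with a phospho-Tau-specific antibody.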

COc1cc(S(=O)(=O)N2CCC(N3CCOCC3)CC2)ccc1Nc1cc(C2CC2)c2c(C(F)(F)F)c[nH]c2n1 [Example 223, 4-cyclopropyl-N-(2-methoxy-4-((4-morpholinopiperidin-1-yl)sulfonyl)phenyl)-3-(trifluoromethyl)-1H-pyrrolo[2,3-b]pyridin-6-amine]
IC50 (TTK): < 0.1 µM | GI50 (MDA-MB-231 cell line): 0.301 to 1 µM | GI50 (SHP-77): 0.301 to 1 µM | IC50 [1]: < 0.1 µM | IC50 [2]: < 0.1 µM | IC50 [3]: < 0.1 µM | IC50 [4]: < 0.1 µM | inhibition at 0.25 µM (human DYRK1A and Tau; 0.25 uM): 4.6% | inhibition at 0.5 µM (human DYRK1A and Tau; 0.5 uM): 12.9% | inhibition at 1 µM (human DYRK1A and Tau; 1 uM): 29%
